Source: the Kinase Knowledgebase extract (Sharma et al. 2016)

Each compound was assayed against CDK2 (human) (UniProt P24941) (assay: Enzyme Assay).

IC50	SMILES
0.7 µM	CCCOc1ccc(CN/C=C2\C(=O)NC(=O)c3ccc(I)cc32)nc1O
50 µM	Cc1cccc(-c2ccc3c(c2)C(=CNCc2ccc(O)c(O)c2)C(=O)NC3=O)c1
29 µM	C=CCOc1ccc(CN/C=C2\C(=O)NC(=O)c3ccc(Br)cc32)cc1O
13.1 µM	CC(C)(C)c1ccc2c(c1)C(=CNCc1cc(O)ccc1-c1ccoc1)C(=O)NC2=O
23 µM	O=C1NC(=O)c2ccccc2/C1=C/Nc1ccc(CN2CCCCC2)cc1
2.4 µM	COc1cnc(CNC=C2C(=O)NC(=O)c3ccc(-n4cccc4)cc32)cc1O
50 µM	CC(=O)Nc1ccc(CN/C=C2\C(=O)NC(=O)c3ccc(Br)cc32)cc1O
50 µM	O=C1NC(=O)c2ccc(Br)cc2/C1=C/NCc1ccc(OCCO)c(O)c1
13.1 µM	CC(C)(C)c1ccc2c(c1)C(=CNCc1ccc(-c3ccoc3)c(O)c1)C(=O)NC2=O
50 µM	COc1ccc(CNC=C2C(=O)NC(=O)c3ccc(-c4ccc5ccccc5c4)cc32)cc1O
50 µM	O=C1NC(=O)c2ccc(-c3ccoc3)cc2/C1=C/NCc1ccc(OC(F)F)c(O)c1
